Measurements taken from US20230240297A1, “SELECTIVE HERBICIDES BASED ON SUBSTITUTED ISOXAZOLIN CARBOXAMIDES AND CYPROSULFAMIDE” (Bayer Aktiengesellschaft, priority 2020, published 2023).

Experiments:
Type in all cases: in vivo, maize
ZEAMA Abraxas = assay: Tank-mix; post-emergence, crop damage with and without safener; details: for HER effect + SAF / HER effect: Final assessment; for HER effect: no safener
Method: (§1) Seeds of crops (spring wheat, TRZAS; spring barley, HORVS; maize, ZEAMA) were placed in sandy loam soil in peat pots, covered with soil and cultivated in a greenhouse under good growth conditions. Two to three weeks after sowing, the test plants were treated at the 1 to 3-leaf stage. The herbicide/safener active compound combinations according to the invention, formulated as wettable powders or emulsion concentrates, and, in parallel tests, the correspondingly formulated individual active compounds were sprayed onto the green parts of the plants in various dosages using an amount of water of 300 1/ha (converted).
(§2) The pots were returned under good growing conditions in a glasshouse and a visual assessment of herbicidal effects was made at intervals from 1 to 3 weeks after herbicide application (DAT = days after treatment). Assessment was on a percentage basis in comparison with untreated control plants (0% = no injury, 100% = complete kill).

ZEAMA Sileno [1] = assay: Seed treatment with safener; post-emergence herbicide application; set-up: Reduction [Difference]: scale not given here; details: Final assessment; for Reduction [%] / Reduction [Difference]: Cyprosulfamide 0.5 g a.i./kg seed; for Reduction [Difference]: damage without safener - damage with safener; for HER effect + SAF (crop damage with safener): Cyprosulfamide seed treatment 0.5 g a.i./kg seed; for HER effect (crop damage, herbicide without safener): no safener
Method: For the safener seed treatment, sufficient seeds of the respective crops (spring wheat, TRZAS; spring barley, HORVS; maize, ZEAMA) were weighed into screw top glass bottles approximately twice the volume of the seeds.
The specified safeners, formulated as wettable powder (WP) were weighed out so that the specified rates (g a.i./kg seed) would be obtained, dissolved in water (1 ml water per 10 g of seeds), and added to the seeds to produce a slurry.
The bottles were capped and then placed in an overhead shaker (set at medium speed for ca. 60 minutes) so that the seeds were evenly coated with the slurry. The bottles were uncapped and the seeds were either placed on paper and dried for an interval of 3-4 hours prior to sowing, or directly sown. Seeds were placed in sandy loam soil in pots of a diameter of 7-8 cm, covered with soil, and cultivated in a greenhouse under good growth conditions.
Post-emergence application of the specified herbicides was done when the plants had reached growth stage BBCH11-13, on two sets of plants:
a) seed treatment with safener, as described above b) no safener treatment
The herbicides were formulated as WP and sprayed onto the green parts of the plants as an aqueous suspension at an equivalent water application rate of 300 1/ha, with addition of wetting agent and adjuvants (e.g. Mero, 1.5 1/ha; ammonium sulphate, 2 kg/ha)
After application, the test plants were kept in the greenhouse under good growth conditions.
Values in the table below are mean values of at least 2 replicates.

ZEAMA Sileno [2] = assay: Tank-mix; post-emergence, crop damage with and without safener; details: for HER effect + SAF / HER effect: Final assessment; for HER effect: no safener
Method: as §1, §2

[3] = HER 8 g a.i./ha, cyprosulfamide 50 g a.i./ha
[4] = HER 32 g a.i./ha, cyprosulfamide 100 g a.i./ha
[5] = HER dose 8 g a.i./ha + cyprosulfamide 50 g a.i./ha tank-mix
[6] = HER dose 32 g a.i./ha + cyprosulfamide 100 g a.i./ha tank-mix
[7] = HER 2 g a.i./ha, cyprosulfamide 50 g a.i./ha
[8] = HER 2 g a.i./ha, cyprosulfamide 50 g a.i./ha, damage without safener - damage with safener
[9] = HER dose 2 g a.i./ha + cyprosulfamide 50 g a.i./ha tank-mix
[10] = HER dose 2 g a.i./ha, 0% = no injury, 100% = complete kill

Row | Structure (SMILES) | Reduction [%] (ZEAMA Abraxas; [3]) | Reduction [Difference] (ZEAMA Abraxas; [3]) | Reduction [%] (ZEAMA Abraxas; [4]) | Reduction [Difference] (ZEAMA Abraxas; [4]) | HER effect + SAF (ZEAMA Abraxas; [5]) | HER effect (ZEAMA Abraxas; HER dose 8 g a.i./ha) | HER effect + SAF (ZEAMA Abraxas; [6]) | HER effect (ZEAMA Abraxas; HER dose 32 g a.i./ha) | Reduction [%] (ZEAMA Sileno [1]; HER dose 32 g a.i./ha) | Reduction [Difference] (ZEAMA Sileno [1]; HER dose 32 g a.i./ha) | HER effect + SAF (crop damage with safener) (ZEAMA Sileno [1]; HER dose 32 g a.i./ha) | HER effect (crop damage, herbicide without safener) (ZEAMA Sileno [1]; HER dose 32 g a.i./ha) | Reduction [%] (ZEAMA Sileno [1]; HER dose 2 g a.i./ha) | Reduction [Difference] (ZEAMA Sileno [1]; HER dose 2 g a.i./ha) | HER effect + SAF (crop damage with safener) (ZEAMA Sileno [1]; HER dose 2 g a.i./ha) | HER effect (crop damage, herbicide without safener) (ZEAMA Sileno [1]; HER dose 2 g a.i./ha) | Reduction [%] (ZEAMA Sileno [1]; HER dose 8 g a.i./ha) | Reduction [Difference] (ZEAMA Sileno [1]; HER dose 8 g a.i./ha) | HER effect + SAF (crop damage with safener) (ZEAMA Sileno [1]; HER dose 8 g a.i./ha) | HER effect (crop damage, herbicide without safener) (ZEAMA Sileno [1]; HER dose 8 g a.i./ha) | further results
1 | C=CC1(C(=O)NC2C=C(C(=O)OCCOC)OC2)CC(c2cc(C)cc(F)c2)=NO1 (centres unmarked) [Example 1.89] | 100% | 30 | 67% | 30 | 0% | 30% | 15% | 45% | 88% | 22 | 3% | 25% | – | – | – | – | – | – | – | – | –
2 | C=CC1(C(=O)NC2C=CC(C(=O)O)C2)CC(c2cc(F)cc(F)c2)=NO1 (centres unmarked) [Example 1.58] | 87% | 54 | 68% | 65 | 8% | 62% | 30% | 95% | 64% | 45 | 25% | 70% | 100% | 20 | 0% | 20% | – | – | – | – | –
3 | CC1(C(=O)NC2C=CC(C(=O)OCCCl)C2)CC(c2cc(F)cc(F)c2)=NO1 (mixture of isomers) [Example 1.47] | – | – | 84% | 52 | – | – | 10% | 62% | – | – | – | – | – | – | – | – | – | – | – | – | –
4 | C=CC1(C(=O)NC2COC(C(=O)OCc3ccc(OC)cc3)C2)CC(c2cc(C)cc(F)c2)=NO1 (mixture of isomers) [Example 1.86] | 84% | 27 | – | – | 5% | 32% | – | – | – | – | – | – | – | – | – | – | – | – | – | – | –
5 | COCCOC(=O)C1C=CC(NC(=O)C2(C)CC(c3cc(Cl)cc(C#N)c3)=NO2)C1 (centres unmarked) [Example 1.5] | – | – | – | – | – | – | – | – | 79% | 76 | 20% | 96% | 100% | 23 | 0% | 23% | 88% | 75 | 10% | 85% | Reduction [%] (ZEAMA Sileno [2]; [3]): 55%; Reduction [Difference] (ZEAMA Sileno [2]; [3]): 47; Reduction [%] (ZEAMA Sileno [2]; [4]): 50%; Reduction [Difference] (ZEAMA Sileno [2]; [4]): 48; HER effect + SAF (ZEAMA Sileno [2]; [5]): 38%; HER effect (ZEAMA Sileno [2]; HER dose 8 g a.i./ha): 85%; HER effect + SAF (ZEAMA Sileno [2]; [6]): 48%; HER effect (ZEAMA Sileno [2]; HER dose 32 g a.i./ha): 96%
6 | COCCOC(=O)C1C=CC(NC(=O)C2(C(F)(F)F)CC(c3cc(F)cc(C#N)c3)=NO2)C1 (centres unmarked) [Example 1.2] | – | – | – | – | – | – | – | – | 81% | 78 | 18% | 96% | – | – | – | – | 89% | 80 | 10% | 90% | Reduction [%] (ZEAMA Sileno [2]; [3]): 44%; Reduction [Difference] (ZEAMA Sileno [2]; [3]): 40; Reduction [%] (ZEAMA Sileno [2]; [4]): 48%; Reduction [Difference] (ZEAMA Sileno [2]; [4]): 46; HER effect + SAF (ZEAMA Sileno [2]; [5]): 50%; HER effect (ZEAMA Sileno [2]; HER dose 8 g a.i./ha): 90%; HER effect + SAF (ZEAMA Sileno [2]; [6]): 50%; HER effect (ZEAMA Sileno [2]; HER dose 32 g a.i./ha): 96%
7 | C=CC1(C(=O)NC2COC(C(=O)OC)C2)CC(c2cc(C)cc(F)c2)=NO1 (mixture of isomers) [Example 1.71] | 71% | 41 | 67% | 61 | 17% | 58% | 30% | 91% | 91% | 29 | 3% | 32% | – | – | – | – | – | – | – | – | –
8 | C=CC1(C(=O)NC2COC(C(=O)OCCOC)C2)CC(c2cc(F)cc(F)c2)=NO1 (mixture of isomers) [Example 1.66] | – | – | – | – | – | – | – | – | 97% | 94 | 3% | 97% | 100% | 33 | 0% | 33% | 100% | 96 | 0% | 96% | Reduction [%] (ZEAMA Sileno [2]; [7]): 79%; Reduction [Difference] (ZEAMA Sileno [2]; [8]): 26; Reduction [%] (ZEAMA Sileno [2]; [3]): 76%; Reduction [Difference] (ZEAMA Sileno [2]; [3]): 73; Reduction [%] (ZEAMA Sileno [2]; [4]): 54%; Reduction [Difference] (ZEAMA Sileno [2]; [4]): 52; HER effect + SAF (ZEAMA Sileno [2]; [9]): 7%; HER effect (ZEAMA Sileno [2]; [10]): 33%; HER effect + SAF (ZEAMA Sileno [2]; [5]): 23%; HER effect (ZEAMA Sileno [2]; HER dose 8 g a.i./ha): 96%; HER effect + SAF (ZEAMA Sileno [2]; [6]): 45%; HER effect (ZEAMA Sileno [2]; HER dose 32 g a.i./ha): 97%
9 | C=CC1(C(=O)NC2CC=C(C(=O)OC)C2)CC(c2cc(F)cc(F)c2)=NO1 (mixture of isomers) [Example 1.60] | 69% | 38 | 79% | 74 | 17% | 55% | 20% | 94% | 88% | 57 | 8% | 65% | – | – | – | – | 94% | 50 | 3% | 53% | –
10 | CC1(C(=O)NC2COC(C(=O)OCc3cccc(F)c3)C2)CC(c2cc(F)cc(F)c2)=NO1 (mixture of isomers) [Example 1.76] | 74% | 67 | 26% | 25 | 23% | 90% | 70% | 95% | 74% | 20 | 7% | 27% | – | – | – | – | 100% | 22 | 0% | 22% | –
11 | C=CC1(C(=O)NC2COC(C(=O)OC)C2)CC(c2cc(F)cc(F)c2)=NO1 (centres unmarked) [Example 1.70] | – | – | – | – | – | – | – | – | 67% | 66 | 32% | 98% | 80% | 70 | 18% | 88% | 77% | 75 | 22% | 97% | Reduction [%] (ZEAMA Sileno [2]; [7]): 77%; Reduction [Difference] (ZEAMA Sileno [2]; [8]): 68; Reduction [%] (ZEAMA Sileno [2]; [3]): 21%; Reduction [Difference] (ZEAMA Sileno [2]; [3]): 20; Reduction [%] (ZEAMA Sileno [2]; [4]): 41%; Reduction [Difference] (ZEAMA Sileno [2]; [4]): 40; HER effect + SAF (ZEAMA Sileno [2]; [9]): 20%; HER effect (ZEAMA Sileno [2]; [10]): 88%; HER effect + SAF (ZEAMA Sileno [2]; [5]): 77%; HER effect (ZEAMA Sileno [2]; HER dose 8 g a.i./ha): 97%; HER effect + SAF (ZEAMA Sileno [2]; [6]): 58%; HER effect (ZEAMA Sileno [2]; HER dose 32 g a.i./ha): 98%
